Among the data in BindingDB's records for patent US20230322715 (University of California, 2023) are IC50 and Ki values, retold here.

What all share (experiment): In Vitro Inhibition Assay Method
Test [1] addresses Alpha-ketoglutarate-dependent dioxygenase FTO (Homo sapiens, UniProt Q9C0B1). How it is done: (§1) Inhibitors were added in concentrations ranging from 0.008-40 μM; all inhibitors were dissolved in DMSO and added to a final concentration of 0.2% DMSO. […] After incubation at room temperature for 2 hours, the plates were left at 4 C. overnight (16 hours) to allow DFHBI-1T to bind to A7-Broccoli RNA. […] Sigmoidal dose-response curves were fitted in GraphPad Prism 6.

The next test deals with RNA demethylase ALKBH5 (Homo sapiens, UniProt Q6P6C2). As for the experimental part:
as §1

Test [2] addresses T1, YTH domain-containing family protein 1 (Homo sapiens, UniProt Q9BYJ9).
T1 sequence (Q9BYJ9 whole entry): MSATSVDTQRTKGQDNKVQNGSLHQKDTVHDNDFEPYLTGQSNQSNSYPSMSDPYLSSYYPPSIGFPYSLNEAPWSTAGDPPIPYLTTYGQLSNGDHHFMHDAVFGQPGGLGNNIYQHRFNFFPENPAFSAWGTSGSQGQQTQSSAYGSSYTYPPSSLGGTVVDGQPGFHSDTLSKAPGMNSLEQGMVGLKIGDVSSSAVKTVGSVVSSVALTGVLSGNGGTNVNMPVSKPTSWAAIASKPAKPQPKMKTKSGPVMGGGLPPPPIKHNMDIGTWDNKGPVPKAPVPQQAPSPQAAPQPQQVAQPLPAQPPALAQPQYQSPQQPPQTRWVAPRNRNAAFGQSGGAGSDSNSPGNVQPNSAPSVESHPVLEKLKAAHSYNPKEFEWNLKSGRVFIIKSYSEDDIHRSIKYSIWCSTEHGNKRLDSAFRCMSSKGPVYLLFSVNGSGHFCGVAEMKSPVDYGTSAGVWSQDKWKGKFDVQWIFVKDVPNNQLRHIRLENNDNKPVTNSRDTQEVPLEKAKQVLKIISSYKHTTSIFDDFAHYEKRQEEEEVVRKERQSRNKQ
How it is done:
as §1

Test [3] concerns the target T2, YTH domain-containing family protein 2 (Homo sapiens, UniProt Q9Y5A9).
T2 sequence (Q9Y5A9 whole entry): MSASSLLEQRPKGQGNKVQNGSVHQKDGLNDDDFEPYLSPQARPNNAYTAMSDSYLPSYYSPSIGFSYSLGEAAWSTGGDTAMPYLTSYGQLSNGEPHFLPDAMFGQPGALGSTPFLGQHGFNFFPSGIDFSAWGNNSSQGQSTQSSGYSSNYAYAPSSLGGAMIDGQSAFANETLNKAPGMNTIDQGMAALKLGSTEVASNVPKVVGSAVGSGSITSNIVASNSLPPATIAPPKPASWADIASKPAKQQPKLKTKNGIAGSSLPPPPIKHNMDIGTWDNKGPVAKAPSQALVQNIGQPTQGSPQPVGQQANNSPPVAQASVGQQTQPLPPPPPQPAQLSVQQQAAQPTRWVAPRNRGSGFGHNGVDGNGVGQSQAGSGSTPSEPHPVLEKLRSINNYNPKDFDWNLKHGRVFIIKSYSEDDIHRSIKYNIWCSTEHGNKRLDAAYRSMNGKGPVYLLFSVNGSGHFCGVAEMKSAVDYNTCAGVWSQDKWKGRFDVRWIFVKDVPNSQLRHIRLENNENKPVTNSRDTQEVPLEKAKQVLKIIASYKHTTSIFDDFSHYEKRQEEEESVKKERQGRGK
As for the experimental part: as §1

Chain of RNA demethylase ALKBH5 (Q6P6C2 whole entry): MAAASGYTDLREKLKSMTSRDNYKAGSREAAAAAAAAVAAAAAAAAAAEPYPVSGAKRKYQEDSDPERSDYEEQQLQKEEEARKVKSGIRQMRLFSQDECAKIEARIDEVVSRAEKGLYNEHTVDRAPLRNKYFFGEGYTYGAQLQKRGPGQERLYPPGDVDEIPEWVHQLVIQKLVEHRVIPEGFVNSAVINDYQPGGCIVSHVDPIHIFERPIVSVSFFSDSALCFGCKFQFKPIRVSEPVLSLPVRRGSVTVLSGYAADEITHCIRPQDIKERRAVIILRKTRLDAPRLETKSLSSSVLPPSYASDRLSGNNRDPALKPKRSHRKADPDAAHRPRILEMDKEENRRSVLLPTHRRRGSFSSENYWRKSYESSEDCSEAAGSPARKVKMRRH
Chain of Alpha-ketoglutarate-dependent dioxygenase FTO (Q9C0B1 whole entry): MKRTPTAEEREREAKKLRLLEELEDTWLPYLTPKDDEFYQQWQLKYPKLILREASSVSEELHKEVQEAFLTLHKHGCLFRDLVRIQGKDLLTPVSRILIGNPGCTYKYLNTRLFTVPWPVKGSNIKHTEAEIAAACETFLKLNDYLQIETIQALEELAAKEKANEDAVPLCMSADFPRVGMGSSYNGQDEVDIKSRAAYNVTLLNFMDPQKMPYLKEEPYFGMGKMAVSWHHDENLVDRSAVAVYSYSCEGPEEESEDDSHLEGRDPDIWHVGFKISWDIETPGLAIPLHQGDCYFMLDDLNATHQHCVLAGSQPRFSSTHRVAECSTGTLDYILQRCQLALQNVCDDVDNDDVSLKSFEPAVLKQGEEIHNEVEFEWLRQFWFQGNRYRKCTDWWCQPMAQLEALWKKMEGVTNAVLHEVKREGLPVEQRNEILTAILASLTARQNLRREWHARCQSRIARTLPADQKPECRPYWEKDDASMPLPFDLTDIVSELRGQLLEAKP

In general, IC50 refers to the midpoint of a concentration-inhibition curve. In the case of `O=C(C1CC1)N1CCN(S(=O)(=O)c2ccc(OC(F)(F)F)cc2)CC1` [US20230322715, Compound TR-ALKBH5-41], the IC50 is over 40 µM in test [1] and 450 nM on RNA demethylase ALKBH5.

As a reminder, the Ki is a measure of affinity in units of concentration, obtained from inhibition or displacement. For the compound `Fc1ccc(Nc2ccc(CNC3CC3)cn2)c(F)n1` [US20230322715, Compound TR-YTH-14], the Ki in test [2] came to 0.399 nM; in test [3], 0.128 nM.

`Cc1ccc(Nc2ccc(CN(C)C)cn2)cc1C` [US20230322715, Compound TR-YTH-17]: the results for the inhibition constant Ki in test [2] and in test [3] were 0.605 nM and 0.333 nM, respectively.

As for `COc1cc(Nc2ccc(CNC3CC3)cn2)cc(OC)c1` [US20230322715, Compound TR-YTH-13], the Ki in test [2] was 0.473 nM; in test [3] it was 0.15 nM.

As to `O=S(=O)(Nc1ccc(Cl)c(Cl)c1)c1ccc(OC(F)(F)F)cc1` [US20230322715, Compound TR-ALKBH5-33], the IC50 was over 40 µM in test [1] and 2600 nM at RNA demethylase ALKBH5.

In the case of `CSc1ccccc1Nc1ccc(CNC2CC2)cn1` [US20230322715, Compound TR-YTH-11], the Ki in test [2] was determined as 13.4 nM; in test [3] it was 5.59 nM.
